This note sets out measurements from patent US9649295B2, “Chemical inhibitors of soluble adenylyl cyclase (sAC)” (Cornell Research Foundation, Inc., priority 2004, dated 2017).

Test [1] concerns CREB phosphorylation. The test is described as follows: CREB phosphorylation in COS7 cells. In kind it is cell-based. As to conditions: 10 μM H89 pretreatment 10 min. The method, then: All cell lines were grown in DME (44 mM sodium bicarbonate) supplemented with 10% FBS. Where indicated, cells were transfected using Lipofectamine 2000 (Invitrogen, Carlsbad, Calif.) as per the manufacturer's instructions. Cells were incubated with DNA for 5 h in OPTI-MEM (Invitrogen), and then switched to normal media. Bicarbonate starvation was conducted by changing media to bicarbonate-free DME (44 mM Hepes) supplemented with 10% FBS for at least 1 h at 37° C. under ambient air conditions. Bicarbonate stimulation consisted of returning cells to normal bicarbonate-containing media and placing them in a 5% CO2 incubator. For PGE2 or forskolin stimulation, cells were grown in normal media under 5% CO2. Stimulation was accomplished by replacing media with normal media containing 1 μM PGE2 or 10 μM forskolin. […]
For phospho-CREB immunolocalization, cells or nuclei were fixed in 4% PFA for 30 min, permeabilized in 0.1% Triton X-100 for 15 min, blocked for at least 1 h in 3% BSA, and immunostained using phospho-CREB polyclonal antisera (1:500; Cell Signaling Technologies) overnight at 4° C. […] Fluorescent images were recorded by a digital camera (Hamamatsu, Bridgewater, N.J.) connected to an inverted epifluorescent microscope (Nikon, Melville, N.Y.). […] Phospho-CREB-positive nuclei were quantified in multiple fields from each stained slide by a blinded experimenter. […]

For test [2], the system named is CREB phosphorylation in isolated nuclei. The experiment in a line: CREB phosphorylation in isolated HeLa nuclei (P2), Western analysis. In kind it is biochemical. As to conditions: for relative intensity of phospho-CREB band normalized to basal: basal 1 U, 1 mM 8-Br cAMP, 40 mM bicarbonate alone or plus 10 μM H-89 or 1 mM 8-Br-RpcAMPs. The method, then: The resuspended pellet and 60% OptiPrep iodixanol were mixed (30% OptiPrep final) and centrifuged at 10,000 g for 20 min. The supernatant was removed and the nuclei-enriched pellet (P2) was resuspended in TM-2 buffer without detergent.
Reactions were stopped by the addition of 20 μl of SDS sample buffer (CREB phosphorylation) or by being placed into a 100° C. heat block for 3 min (adenylyl cyclase).
For whole cell and isolated nuclei CREB phosphorylation assays, equal cell or nuclear equivalents were separated under reducing conditions using a 10% SDS-PAGE, transferred to a PVDF membrane, and probed for CREB (rabbit polyclonal antiserum; Chemicon, Temecula, Calif.) and phosphorylated CREB (rabbit polyclonal antiserum; Upstate Biotechnology, Temecula, Calif.). HRP-conjugated secondary antibodies were used, and bands were visualized using ECL. Image analysis software (model Fluorchem 8800; Alpha Innotech, San Leandro, Calif.) was used to quantitate Western results. Intensities of phospho-CREB bands were normalized to total CREB.

For test [3], the system named is CREB phosphorylation. The test is described as follows: time course of CREB phosphorylation in Huh7 cells. In kind it is cell-based, human. As to conditions: 44 mM bicarbonate DME, 1 μM PGE2. The procedure:
FIGS. 2A-B show the time course of CREB phosphorylation by sAC and tmAC. Huh7 cells were starved for 1 h for bicarbonate and CO2 and incubated in 44 mM of normal, bicarbonate-containing DME in 5% CO2 for the time indicated (FIG. 2A) or kept in normal media and treated with 1 μM PGE2 for the time indicated (FIG. 2B). Top panels in FIGS. 2A-B show Western blots using anti-phospho-CREB antisera with phosphorylated CREB (P-CREB) protein indicated; the bottom panels show Western blot using CREB-specific antisera with total CREB (CREB) protein indicated. Shown below the Western blots in FIGS. 2A-B are graphical representations of the intensities of phospho-CREB relative to CREB normalized to the 0 min time point (first lane).
All cell lines were grown in DME (44 mM sodium bicarbonate) supplemented with 10% FBS. […]
For whole cell and isolated nuclei CREB phosphorylation assays, equal cell or nuclear equivalents were separated under reducing conditions using a 10% SDS-PAGE, transferred to a PVDF membrane, and probed for CREB (rabbit polyclonal antiserum; Chemicon, Temecula, Calif.) and phosphorylated CREB (rabbit polyclonal antiserum; Upstate Biotechnology, Temecula, Calif.). […] Image analysis software (model Fluorchem 8800; Alpha Innotech, San Leandro, Calif.) was used to quantitate Western results. […]

In test [4] the test system is CREB phosphorylation in isolated nuclei. The test is described as follows: phospho-CREB immunocytochemistry of isolated nuclei. In kind it is biochemical. As to conditions: 10 min; 40 mM sodium bicarbonate, 1 mM 8-Br cAMP, 10 μM forskolin. The procedure: Cell Signaling Technologies) overnight at 4° C. Staining was visualized by incubation with goat anti-rabbit Alexa Fluor 488 (Molecular Probes) for 1 h at room temperature, treated with DAPI for 5 min, and washed and mounted with gelvatol/DABCO (Sigma-Aldrich). Fluorescent images were recorded by a digital camera (Hamamatsu, Bridgewater, N.J.) connected to an inverted epifluorescent microscope (Nikon, Melville, N.Y.). Images were taken at the same exposure time and gain, and all photographic manipulations were performed equally. Phospho-CREB-positive nuclei were quantified in multiple fields from each stained slide by a blinded experimenter. […] Nuclei were also treated with DAPI to differentiate intact nuclei from membrane ghosts. DAPI-positive nuclei were scored for phosho-CREB immunofluorescence. Nuclei with detectable staining (FIG. 6A, NaHCO3) were considered positive for CREB phosphorylation, whereas nuclei with no detectable staining (FIG. 6A, Basal) were counted as negative. Multiple microscopic fields were photographed for each condition, and data was combined from three to five separate experiments.

Test [5] addresses catalytic portion of the sAC-like adenylyl cyclase from Candida albicans (fragment JR3) (Candida albicans, UniProt A0A1D8PR83). The test is described as follows: biochemical. The following applies: read-out: EC50 for stimulation of adenylyl cyclase activity of JR3. The source says: . FIG. 17A illustrates the bicarbonate dependence of the JR3 fragment; […];

One may read the EC50 as the concentration at which the effect is half-maximal.

A value given as a limit tells only on which side of the number the result lay.

Sequence of catalytic portion of the sAC-like adenylyl cyclase from Candida albicans (fragment JR3) (A0A1D8PR83 entry or part of it): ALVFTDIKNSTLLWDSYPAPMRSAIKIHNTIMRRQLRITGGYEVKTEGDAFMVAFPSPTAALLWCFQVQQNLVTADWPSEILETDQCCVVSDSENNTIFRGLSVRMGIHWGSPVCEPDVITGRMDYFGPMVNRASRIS

`O=S(=O)(NCCNC/C=C/c1ccc(Br)cc1)c1cccc2cnccc12` [H89]: the “effect on forskolin- or bicarbonate-induced phospho-CREB immunostaining” value with CREB phosphorylation [1] was “inhibited”. The “relative intensity of phospho-CREB band normalized to basal” value in test [2] was 13 U. The “reduction of CREB phosphorylation induced by bicarbonate” value in test [2] (isolated nuclei, 40 mM bicarbonate) worked out at 50%.

Regarding `O=C([O-])O.[Na+]` [bicarbonate, sodium bicarbonate], in the test with CREB phosphorylation [3], the “time to detectable increase in phospho-CREB” value is ≤ 2 min. Besides, in test [4], the “percentage of phospho-CREB-positive nuclei relative to basal” value was “at least a twofold rise”. For the same molecule, in test [5], the EC50 is ~200 µM. Also, the “relative intensity of phospho-CREB band normalized to basal” value in test [2] was 27 U. For the same molecule, in test [2] (isolated nuclei, Western), the “increase in CREB phosphorylation” value was 27 fold.
